From patent publication US20130196986A1 (priority 2010, published 2013)

molecular target: T1, P2X7 receptor (Homo sapiens, UniProt Q99572); test: Ca++ flux assay (FLIPR) in P2X7-HEK-293 cell line stably expressing the full length P2X7 receptor, Bz-ATP activation; assay type: cell-based; details: P2X7-HEK-293 cells; agonist Bz-ATP; fluorescence as total area over 90 seconds; read-out: P2X7 Ca Flux hu IC50
T1 construct: stably expressing the full length P2X7 receptor; expressed in transfected cells
T1 sequence (Q99572 1-595): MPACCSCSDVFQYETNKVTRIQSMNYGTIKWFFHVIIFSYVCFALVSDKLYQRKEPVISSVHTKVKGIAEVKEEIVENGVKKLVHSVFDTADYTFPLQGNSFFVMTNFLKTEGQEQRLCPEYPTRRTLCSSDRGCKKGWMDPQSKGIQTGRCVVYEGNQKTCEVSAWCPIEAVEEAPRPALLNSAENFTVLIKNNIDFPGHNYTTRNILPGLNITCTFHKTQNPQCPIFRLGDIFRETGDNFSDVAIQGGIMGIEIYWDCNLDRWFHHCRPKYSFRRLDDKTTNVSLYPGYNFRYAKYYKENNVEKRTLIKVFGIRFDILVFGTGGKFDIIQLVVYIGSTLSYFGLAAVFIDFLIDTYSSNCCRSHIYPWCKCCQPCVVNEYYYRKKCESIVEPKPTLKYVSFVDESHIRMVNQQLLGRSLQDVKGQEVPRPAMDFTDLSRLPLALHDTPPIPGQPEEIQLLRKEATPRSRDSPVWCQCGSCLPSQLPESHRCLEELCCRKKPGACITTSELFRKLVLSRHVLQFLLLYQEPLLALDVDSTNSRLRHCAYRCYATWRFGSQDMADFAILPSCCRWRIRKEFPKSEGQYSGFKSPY
Protocol: The ability of Triazolopyrazinone Compounds to inhibit P2X7 function can be determined in Ca^++ flux assay using a P2X7-HEK-293 cell line stably expressing the full length P2X7 receptor. The assay protocol is as described in Cheewatrakoolpong et al., Biochem. Biophys. Res. Commun. 332:17-27 (2005) with minor modification, and is as summarized hereinafter. Briefly, cells were plated in poly-D-lysine-coated wells, and incubated at 37° C. for 24 hours. Cells were then incubated for 1 hour with a loading buffer which contains a dye sensitive to changes in Ca^++ concentration (lx Calcium Plus no wash dye from Molecular Devices, Sunnyvale, Calif.). The test compounds were added to the wells in the dye loading step. Plates containing the wells were transferred to a Fluorometric Imaging Plate Reader (Molecular Devices, Sunnyvale, Calif.). The cells were activated by the addition of the P2X7 receptor agonist 2′(3) —O-(4-benzoylbenzoyl)adenosine 5′-triphosphate (Bz-ATP from Sigma-Aldrich, St. Louis, Mo.), and the fluorescence was monitored for 90 seconds. The fluorescent signal was determined as the total area over the 90 second run time. Using this protocol, representative Triazolopyrazinone Compounds, compounds 1471 were tested. Tables 3 to 6 show the concentration at which 50% of the maximum response in the Ca^++ was inhibited (IC50) for each of the test compounds.

Q: `Cc1c(-n2ccn3c(S(=O)(=O)Cc4ccc(Cl)s4)nnc3c2=O)cccc1C(F)(F)F` [Compound 132, 3-((5-chlorothiophen-2-yl)methylsulfonyl)-7-(2-methyl-3-(trifluoromethyl)phenyl)-[1,2,4]triazolo[4,3-a]pyrazin-8(7H)-one] was tested. Which IC50 did it give?
A: 17.9 nM

Q: Which IC50 does the source give for `Cc1c(-n2ccn3c(S(=O)(=O)Cc4ccccc4-c4ccc(F)cc4)nnc3c2=O)cccc1C(F)(F)F` [Compound 138, 3-((4′-fluorobiphenyl-2-yl)methylsulfonyl)-7-(2-methyl-3-(trifluoromethyl)phenyl)-[1,2,4]triazolo[4,3-a]pyrazin-8(7H)-one] here?
A: 30.8 nM

Q: Which IC50 does the source give for `Cc1c(Cl)cccc1-n1ccn2c(SCc3cccc(F)c3Cl)nnc2c1=O` [Compound 16, 7-(3-chloro-2-methylphenyl)-3-(2-chloro-3-fluorobenzylthio)-[1,2,4]triazolo[4,3-a]pyrazin-8(7H)-one] here?
A: 286 nM

Q: For `Cc1ccccc1CSc1nnc2c(=O)n(-c3cccc(C(F)(F)F)c3Cl)ccn12` [Compound 47, 7-(2-chloro-3-(trifluorornethyl)phenyl)-3-(2-methylbenzylthio)-[1,2,4]triazolo[4,3-a]pyrazin-8(7H)-one], which IC50 is on record?
A: 41.8 nM

Q: Which IC50 does the source give for `Cc1c(-n2ccn3c(S(=O)(=O)Cc4ccsc4Br)nnc3c2=O)cccc1C(F)(F)F` [Compound 125, 3-((2-bromothiophen-3-yl)methylsulfonyl)-7-(2-methyl-3-(trifluoromethyl)phenyl)-[1,2,4]triazolo[4,3-a]pyrazin-8(7H)-one] here?
A: 15.5 nM

Q: Which IC50 does the source give for `Cc1c(-n2ccn3c(S(=O)(=O)Cc4ccccc4-c4cccs4)nnc3c2=O)cccc1C(F)(F)F` [Compound 143, 7-(2-methyl-3-(trifluoromethyl)phenyl)-3-(2-(thiophen-2-yl)benzylsulfonyl)-[1,2,4]triazolo[4,3-a]pyrazin-8(7H)-one] here?
A: 46.2 nM

Q: Which IC50 does the source give for `Cc1c(Cl)cccc1-n1ccn2c(SCc3ccccc3-c3cccnc3)nnc2c1=O` [Compound 36, 7-(3-chloro-2-methylphenyl)-3-(2-(pyridin-3-yl)benzytthio)-[1,2,4]triazolo[4,3-a]pyrazin-8(7H)-one] here?
A: 147 nM

Q: Which IC50 does the source give for `Cc1c(-n2ccn3c(S(=O)(=O)Cc4cccs4)nnc3c2=O)cccc1C(F)(F)F` [Compound 122, 7-(2-methyl-3-(trifluoromethyl)phenyl)-3-(thiophen-2-ylmethylsulfonyl)-[1,2,4]triazolo[4,3-a]pyrazin-8(7H)-one] here?
A: 12.3 nM

Q: With `O=c1c2nnc(SC(c3ccccc3)c3ccccc3)n2ccn1-c1cccc(C(F)(F)F)c1Cl` [Compound 25, 3-(benzhydrylthio)-7-(2-chloro-3-(trifluoromethyl)phenyl)-[1,2,4]triazolo[4,3-a]pyrazin-8(7H)-one] as the compound, how does the IC50 read?
A: 41.7 nM

Q: Which IC50 does the source give for `Cc1c(Cl)cccc1-n1ccn2c(S(=O)(=O)Cc3ccc(F)cc3Cl)nnc2c1=O` [Compound 148, 7-(3-chloro-2-methylphenyl)-3-(2-chloro-4-fluorobenzylsulfonyl)-[1,2,4]triazolo[4,3-a]pyrazin-8(7H)-one] here?
A: 47 nM

Q: Which IC50 does the source give for `O=c1c2nnc(S(=O)(=O)C(c3ccccc3)c3ccccc3)n2ccn1-c1cccc(C(F)(F)F)c1Cl` [Compound 144, 3-(benzhydrylsulfonyl)-7-(2-chloro-3-(trifluoromethyl)phenyl)-[1,2,4]triazolo[4,3-a]pyrazin-8(7H)-one] here?
A: 130 nM

Q: For `Cc1c(-n2ccn3c(SCc4ccccc4)nnc3c2=O)cccc1C(F)(F)F` [Compound 93, 3-(benzylthio)-7-(2-methyl-3-(trifluoromethyl)phenyl)-[1,2,4]triazolo[4,3-a]pyrazin-8(7H)-one], which IC50 is on record?
A: 38.2 nM

Q: `Cc1nc(CSc2nnc3c(=O)n(-c4cccc(Cl)c4C)ccn23)cs1` [Compound 94, 7-(3-chloro-2-methylphenyl)-3((2-methylthiazol-4-yl)methylthio)-[1,2,4]triazolo[4,3-a]pyrazin-8(7H)-one] was tested. Which IC50 did it give?
A: 2560 nM

Q: Which IC50 does the source give for `Cc1c(Cl)cccc1-n1ccn2c(SCc3ccccc3OC(F)(F)F)nnc2c1=O` [Compound 70, 7-(3-chloro-2-methylphenyl)-3-(2-(trifluoromethoxy)benzylthio)-[1,2,4]triazolo[4,3-a]pyrazin-8(7H)-one] here?
A: 112 nM

Q: For `Cc1c(-n2ccn3c(SCc4ccccc4Oc4ccccc4)nnc3c2=O)cccc1C(F)(F)F` [Compound 20, 7-(2-methyl-3-(trifluoromethyl)phenyl)-3-(2-phenoxybenzylthio)-[1,2,4]triazolo[4,3-a]pyrazin-8(7H)-one], which IC50 is on record?
A: 144 nM

Q: Which IC50 does the source give for `Cc1c(Cl)cccc1-n1ccn2c(SCc3cccc(OC(F)(F)F)c3)nnc2c1=O` [Compound 85, 7-(3-chloro-2-methylphenyI)-3-(3-(trifluoromethoxy)benzylthio)-[1,2,4]triazolo[4,3-a]pyrazin-8(7H)-one] here?
A: 503 nM

Q: For `Cc1c(Cl)cccc1-n1ccn2c(SCc3ccc(Cl)c(Cl)c3)nnc2c1=O` [Compound 103, 7-(3-chloro-2-methylphenyl)-3-(3,4-dichlorobenzylthio)-[1,2,4]triazolo[4,3-a]pyrazin-8(7H)-one], which IC50 is on record?
A: 1300 nM

Q: Which IC50 does the source give for `O=c1c2nnc(SCc3ccccc3)n2ccn1-c1cccc2ccccc12` [Compound 29, 3-(benzylthio)-7-(naphthalen-1-yl)-[1,2,4]-triazolo[4,3-a]pyrazin-8(7H)-one] here?
A: 3630 nM

Q: For `Cc1c(-n2ccn3c(SCc4ccccc4-c4ccc(Cl)cc4)nnc3c2=O)cccc1C(F)(F)F` [Compound 9, 3-((4′-chlorobiphenyl-2-yl)nrethylthio)-7-(2-methyl-3-(trifluoromethyl)phenyl)-[1,2,4]triazolo[4,3-a]pyrazin-8(7H)-one], which IC50 is on record?
A: 102 nM

Q: `Cc1c(-n2ccn3c(S(=O)(=O)Cc4cccc5c4-c4ccccc4C5)nnc3c2=O)cccc1C(F)(F)F` [Compound 159, 3-((9H-fluoren-4-yl)methylsulfonyl)-7-(2-methyl-3-(trifluoromethyl)phenyl)-[1,2,4]triazolo[4,3-a]pyrazin-8(7H)-one] was tested. Which IC50 did it give?
A: 1130 nM

Q: Which IC50 does the source give for `Cc1c(Cl)cccc1-n1ccn2c(SCc3cc(C(F)(F)F)cc(C(F)(F)F)c3)nnc2c1=O` [Compound 88, 3-(3,5-bis(trifluoromethyl)benzylthio)-7-(3-chloro-2-methylphenyl)-[1,2,4]triazolo[4,3-a]pyrazin-8(7H)-one] here?
A: 8370 nM

Q: For `O=c1c2nnc(S(=O)(=O)Cc3cccc4ccccc34)n2ccn1-c1cccc(C(F)(F)F)c1Cl` [Compound 145, 7-(2-chloro-3-(trifluoromethyl)phenyl)-3-(naphthalen-1-ylmethylsulfonyl)-[1,2,4]triazolo[4,3-a]pyrazin-8(7H)-one], which IC50 is on record?
A: 47.9 nM

Q: For `Cc1c(Cl)cccc1-n1ccn2c(SCc3cc(Cl)ccc3Cl)nnc2c1=O` [Compound 72, 7-(3-chloro-2-methylphenyl)-3-(2,5-dichlorobenzylthio)-[1,2,4]triazolo[4,3-a]pyrazin-8(7H)-one], which IC50 is on record?
A: 3150 nM

Q: Which IC50 does the source give for `Cc1ccc(-c2ccccc2CS(=O)(=O)c2nnc3c(=O)n(-c4cccc(C(F)(F)F)c4C)ccn23)s1` [Compound 141] here?
A: 37 nM

Q: How did the IC50 turn out when `Cc1c(Cl)cccc1-n1ccn2c(S(=O)(=O)Cc3ccccc3-c3cccs3)nnc2c1=O` [Compound 151, 7-(3-chloro-2-methylphenyl)-3-(2-(thiophen-2-yl)benzylsulfonyl)-[1,2,4]triazolo[4,3-a]pyrazin-8(7H)-one] was run?
A: 50.9 nM

Q: With `Cc1c(-n2ccn3c(S(C)(=O)=O)nnc3c2=O)cccc1C(F)(F)F` [Compound 165, 7-(2-methyl-3-(trifluoromethyl)phenyl)-3-(methylsulfonyl)-[1,2,4]triazolo[4,3-a]pyrazin-8(7H)-one] as the compound, how does the IC50 read?
A: 5680 nM

Q: `Cc1c(Cl)cccc1-n1ccn2c(SCc3c(F)cccc3F)nnc2c1=O` [Compound 105, 7-(3-chloro-2-methylphenyl)-3-(2,6-difluorobenzylthio)-[1,2,4]triazolo[4,3-a]pyrazin-8(7H)-one] was tested. Which IC50 did it give?
A: 389 nM

Q: `Cc1c(Cl)cccc1-n1ccn2c(S(=O)(=O)Cc3cc(Cl)cc(Cl)c3)nnc2c1=O` [Compound 161, 7-(3-chloro-2-methylphenyl)-3-(3,5-dichlorobenzylsulfonyl)-[1,2,4]triazolo[4,3-a]pyrazin-8(7H)-one] was tested. Which IC50 did it give?
A: 335 nM

Q: How did the IC50 turn out when `Cc1c(Cl)cccc1-n1ccn2c(N(Cc3ccccc3)Cc3ccccc3)nnc2c1=O` [Compound 170, 7-(3-chloro-2-methylphenyl)-3-(dibenzylamino)-[1,2,4]triazolo[4,3-a]pyrazin-8(7H)-one] was run?
A: 106 nM

Q: With `Cc1c(Cl)cccc1-n1ccn2c(SCCc3ccccc3)nnc2c1=O` [Compound 112, 7-(3-chloro-2-methylphenyl)-3-(phenethylthio)-[1,2,4]triazolo[4,3-a]pyrazin-8(7H)-one] as the compound, how does the IC50 read?
A: 660 nM
